In assay [1] the target is T1, human bradykinin 1 receptor (B1R) (Homo sapiens, UniProt P46663).
T1 construct: expressed in transfected cells; host or cells: CHO K1 cells
T1 sequence (P46663 1-353): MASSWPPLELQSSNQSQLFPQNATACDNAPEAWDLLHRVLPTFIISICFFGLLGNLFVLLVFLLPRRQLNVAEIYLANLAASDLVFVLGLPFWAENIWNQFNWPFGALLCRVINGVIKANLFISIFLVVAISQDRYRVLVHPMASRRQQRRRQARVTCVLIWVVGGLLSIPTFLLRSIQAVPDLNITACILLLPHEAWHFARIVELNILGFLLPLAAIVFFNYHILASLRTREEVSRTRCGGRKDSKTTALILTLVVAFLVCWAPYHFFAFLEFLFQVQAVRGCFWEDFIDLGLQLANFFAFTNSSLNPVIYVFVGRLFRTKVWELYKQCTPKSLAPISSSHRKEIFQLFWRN
The assay is described as follows: Functional investigation on the human bradykinin 1 receptor (B1R), Ca2+ FLIPR assay in CHO K1 hB1R cells. Format: cell-based. In a few lines: (§1)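 Stably transfected CHO K1 cells loaded with Fluo-4; FLIPR Ca2+ fluorescence peak (ex 488/em 540 nm). Compound added first (agonism vs Lys-Des-Arg9-bradykinin ≥50 nM human, Des-Arg9-bradykinin 10 μM rat), then after 10-20 min agonist at EC80; antagonism as % inhibition, IC50 from concentration series, n=2-3, N≥2.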

Assay [2] has as its target T2, bradykinin 1 receptor (B1R) of the rat (Rattus norvegicus, UniProt P97583).
T2 construct: expressed in transfected cells; host or cells: CHO K1 cells
T2 sequence (P97583 1-337): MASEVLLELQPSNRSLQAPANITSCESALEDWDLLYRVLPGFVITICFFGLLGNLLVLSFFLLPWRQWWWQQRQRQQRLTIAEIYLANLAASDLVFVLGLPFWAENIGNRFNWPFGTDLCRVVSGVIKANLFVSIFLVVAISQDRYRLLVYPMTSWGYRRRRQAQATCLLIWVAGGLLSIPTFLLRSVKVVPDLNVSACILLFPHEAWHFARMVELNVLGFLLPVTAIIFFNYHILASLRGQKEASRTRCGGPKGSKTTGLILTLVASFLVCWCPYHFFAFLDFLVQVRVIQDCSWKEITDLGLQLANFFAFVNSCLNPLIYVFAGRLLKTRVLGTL
In words: Functional investigation on the rat bradykinin 1 receptor (B1R), Ca2+ FLIPR assay in CHO K1 rB1R cells. It counts as cell-based. In a few lines: as §1

Where [3] appears, read: CHO-K1, B1R antagonism human, test substance 10 μM, Ca2+ FLIPR, CHO K1 hB1R cells, read-out: B1R Ant. h [10 μM] % Inhibition.
Where [4] appears, read: CHO-K1, B1R antagonism rat, test substance 10 μM, Ca2+ FLIPR, CHO K1 rB1R cells, read-out: B1R Ant. r [10 μM] % Inhibition.
Setting [5] is: CHO-K1, read-out: B1R Ant. h [10 μM] % Inhibition.
Where [6] appears, read: CHO-K1, read-out: B1R Ant. r [10 μM] % Inhibition.

The text below walks through data of patent US8106055B2, “Substituted amide compounds” (Gruenenthal GmbH, priority 2007, dated 2012).

For orientation: inhibition means the change of the read-out against control, counted positive when it falls.

Like-named read-outs stand apart in the source and are kept apart here.

Regarding `CN(C)C(c1ccccc1)C1CCC(CNC(=O)COCCN(C)S(=O)(=O)c2ccc(OC(F)(F)F)cc2)CC1` (stereo not drawn) [Example 53, N-((4-((dimethylamino)(phenyl)methyl)cyclohexyl)methyl)-2-(2-(N-methyl-4-(trifluoromethoxy)phenylsulfonamido)ethoxy)acetamide], the inhibition at 10 µM turned out to be 19% in assay [1] (setting [3]) and 41% in assay [2] (setting [4]).

On to `CN(C)C(c1cccs1)C1CCC(CCNC(=O)COCCN(C)S(=O)(=O)c2ccc(OC(F)(F)F)cc2)CC1` (stereo not drawn) [Example 65, N-(2-(4-((dimethylamino)(thiophen-2-yl)methyl)cyclohexyl)ethyl)-2-(2-(N-methyl-4-(trifluoromethoxy)phenylsulfonamido)ethoxy)acetamide], for which the inhibition at 10 µM in assay [1] (setting [3]) turned out to be 12%; in assay [2] (setting [4]), 18%.

With `COc1ccc(S(=O)(=O)N2CCCCC2COCC(=O)NCC2CCC(C(c3cccs3)N(C)C)CC2)cc1` (stereo not drawn) [Example 45, N-((4-((dimethylamino)(thiophen-2-yl)methyl)cyclohexyl)methyl)-2-((1-(4-methoxyphenylsulfonyl)piperidin-2-yl)methoxy)acetamide], the values for the inhibition at 10 µM in assay [1] (setting [3]) and in assay [2] (setting [4]) were 70% and 65%, respectively.

As to `COc1ccc(S(=O)(=O)N2Cc3ccccc3CC2COCC(=O)NC2CCC(C(c3ccccc3)N(C)C)CC2)cc1` (stereo not drawn) [Example 38, N-(4-((dimethylamino)(phenyl)methyl)cyclohexyl)-2-((2-(4-methoxyphenylsulfonyl)-1,2,3,4-tetrahydroisoquinolin-3-yl)methoxy)acetamide], the results for the inhibition at 10 µM in assay [1] (setting [3]) and in assay [2] (setting [4]) were 45% and 46%, respectively.

On to `Cc1ccc(S(=O)(=O)N(C)CCOCC(=O)NCCC2CCC(C(c3cccs3)N(C)C)CC2)cc1` (stereo not drawn) [Example 82, N-(2-(4-((dimethylamino)(thiophen-2-yl)methyl)cyclohexyl)ethyl)-2-(2-(N,4-dimethylphenylsulfonamido)ethoxy)acetamide], for which the inhibition at 10 µM is -2% in assay [1] (setting [3]) and -1% in assay [2] (setting [4]).

Turning to `COc1cc(C)c(S(=O)(=O)N2CCC(OCC(=O)NC3CCC(C(c4cccs4)N(C)C)CC3)CC2)c(C)c1C` (stereo not drawn) [Example 1, N-(4-((dimethylamino)(thiophen-2-yl)methyl)cyclohexyl)-2-(1-(4-methoxy-2,3,6-trimethylphenylsulfonyl)piperidin-4-yloxy)acetamide], the inhibition at 10 µM was 46% in assay [1] (setting [3]) and -5% in assay [2] (setting [4]).

`CN(C)C(c1cccs1)C1CCC(CNC(=O)COCCN(C)S(=O)(=O)c2ccc(OC(F)(F)F)cc2)CC1` (stereo not drawn) [Example 93, N-((4-((dimethylamino)(thiophen-2-yl)methyl)cyclohexyl)methyl)-2-(2-(N-methyl-4-(trifluoromethoxy)phenylsulfonamido)ethoxy)acetamide]: the inhibition at 10 µM was -2% in assay [1] (setting [3]) and 6% in assay [2] (setting [4]).

As for `COc1ccc(S(=O)(=O)N2CCCC2COCC(=O)NCCC2CCC(C(c3cccs3)N(C)C)CC2)cc1` (stereo not drawn) [Example 77, N-(2-(4-((dimethylamino)(thiophen-2-yl)methyl)cyclohexyl)ethyl)-2-((1-(4-methoxyphenylsulfonyl)pyrrolidin-2-yl)methoxy)acetamide], the inhibition at 10 µM in assay [1] (setting [3]) was found to be 41%; in assay [2] (setting [4]), 44%.

With `COc1ccc(S(=O)(=O)N2CCCCC2CCOCC(=O)NCC2CCC(C(c3cccs3)N(C)C)CC2)cc1` (stereo not drawn) [Example 90, N-((4-((dimethylamino)(thiophen-2-yl)methyl)cyclohexyl)methyl)-2-(2-(1-(4-methoxyphenylsulfonyl)piperidin-2-yl)ethoxy)acetamide], the results for the inhibition at 10 µM in assay [1] (setting [3]) and in assay [2] (setting [4]) were 49% and 37%, respectively.

`COc1ccc(S(=O)(=O)N2CCCCC2CCOCC(=O)NC2CCC(C(c3cccc(F)c3)N(C)C)CC2)cc1` (stereo not drawn) [Example 62, N-(4-((dimethylamino)(3-fluorophenyl)methyl)cyclohexyl)-2-(2-(1-(4-methoxyphenylsulfonyl)piperidin-2-yl)ethoxy)acetamide]: the inhibition at 10 µM worked out at 40% in assay [1] (setting [3]) and 32% in assay [2] (setting [4]).

`CN(C)C(c1cccc(F)c1)C1CCC(CCNC(=O)COCCN(C)S(=O)(=O)c2c(Cl)cccc2Cl)CC1` (stereo not drawn) [Example 41, 2-(2-(2,6-dichloro-N-methylphenylsulfonamido)ethoxy)-N-(2-(4-((dimethylamino)(3-fluorophenyl)methyl)cyclohexyl)ethyl)acetamide]: the inhibition at 10 µM in assay [1] (setting [3]) was determined as 91%; in assay [2] (setting [4]) it was 54%.

Take `CN(C)C(c1cccs1)C1CCC(CCNC(=O)COC2CCN(S(=O)(=O)c3ccc(Cl)cc3)C2)CC1` (stereo not drawn) [Example 66, 2-(1-(4-chlorophenylsulfonyl)pyrrolidin-3-yloxy)-N-(2-(4-((dimethylamino)(thiophen-2-yl)methyl)cyclohexyl)ethyl)acetamide]: the values for the inhibition at 10 µM in assay [1] (setting [3]) and in assay [2] (setting [4]) were -1% and 30%, respectively.

For the molecule `COc1cc(C)c(S(=O)(=O)N2CCC(OCC(=O)NCC3CCC(C(c4cccs4)N(C)C)CC3)C2)c(C)c1` (stereo not drawn) [Example 86, N-((4-((dimethylamino)(thiophen-2-yl)methyl)cyclohexyl)methyl)-2-(1-(4-methoxy-2,6-dimethylphenylsulfonyl)pyrrolidin-3-yloxy)acetamide], the values for the inhibition at 10 µM in assay [1] (setting [3]) and in assay [2] (setting [4]) were 98% and 100%, respectively.

Take `COc1cc(C)c(S(=O)(=O)N2CCN(CCOCC(=O)NC3CCC(C(c4cccc(F)c4)N(C)C)CC3)CC2)c(C)c1C` (stereo not drawn) [Example 76, N-(4-((dimethylamino)(3-fluorophenyl)methyl)cyclohexyl)-2-(2-(4-(4-methoxy-2,3,6-trimethylphenylsulfonyl)piperazin-1-yl)ethoxy)acetamide]: the inhibition at 10 µM is 52% in assay [1] (setting [3]) and -7% in assay [2] (setting [4]).

On to `CN(C)C(c1cccs1)C1CCC(CNC(=O)COCCN(C)S(=O)(=O)c2ccc(F)cc2)CC1` (stereo not drawn) [Example 56, N-((4-((dimethylamino)(thiophen-2-yl)methyl)cyclohexyl)methyl)-2-(2-(4-fluoro-N-methylphenylsulfonamido)ethoxy)acetamide], for which the figures for the inhibition at 10 µM in assay [1] (setting [5]) and in assay [2] (setting [6]) were 22% and -4%, respectively.

`CN(C)C(c1cccc(F)c1)C1CCC(CNC(=O)COCC2CCCCN2S(=O)(=O)c2ccc(Cl)c(Cl)c2)CC1` (stereo not drawn) [Example 87, 2-((1-(3,4-dichlorophenylsulfonyl)piperidin-2-yl)methoxy)-N-((4-((dimethylamino)(3-fluorophenyl)methyl)cyclohexyl)methyl)acetamide]: the inhibition at 10 µM in assay [1] (setting [3]) is 57%; in assay [2] (setting [4]), 9%.

For the molecule `Cc1ccc(S(=O)(=O)N(C)CCOCC(=O)NCC2CCC(C(c3cccs3)N(C)C)CC2)cc1` (stereo not drawn) [Example 4, N-((4-((dimethylamino)(thiophen-2-yl)methyl)cyclohexyl)methyl)-2-(2-(N,4-dimethylphenylsulfonamido)ethoxy)acetamide], the inhibition at 10 µM was found to be 2% in assay [1] (setting [3]) and 18% in assay [2] (setting [4]).

As to `CN(C)C(c1cccs1)C1CCC(NC(=O)COCCN(C)S(=O)(=O)c2ccc(Cl)cc2)CC1` (stereo not drawn) [Example 83, 2-(2-(4-chloro-N-methylphenylsulfonamido)ethoxy)-N-(4-((dimethylamino) (thiophen-2-yl)methyl)cyclohexyl)acetamide], the figures for the inhibition at 10 µM in assay [1] (setting [3]) and in assay [2] (setting [4]) were 7% and 11%, respectively.

Consider `CN(C)C(c1cccc(F)c1)C1CCC(CNC(=O)COCCN(C)S(=O)(=O)c2ccc(Cl)cc2Cl)CC1` (stereo not drawn) [Example 70, 2-(2-(2,4-dichloro-N-methylphenylsulfonamido)ethoxy)-N-((4-((dimethylamino)(3-fluorophenyl)methyl)cyclohexyl)methyl)acetamide], for which the inhibition at 10 µM in assay [1] (setting [3]) is 98%; in assay [2] (setting [4]), 31%.

In the case of `CN(C)C(c1ccccc1)C1CCC(CNC(=O)COC2CCCCC2N(C)S(=O)(=O)c2ccc(Cl)c(Cl)c2)CC1` (stereo not drawn) [Example 78, 2-(2-(3,4-dichloro-N-methylphenylsulfonamido)cyclohexyloxy)-N-((4-((dimethylamino)(phenyl)methyl)cyclohexyl)methyl)acetamide], the inhibition at 10 µM was found to be 51% in assay [1] (setting [3]) and 2% in assay [2] (setting [4]).

Turning to `CN(C)C(c1cccs1)C1CCC(NC(=O)COC2CCCN(S(=O)(=O)c3ccccc3)C2)CC1` (stereo not drawn) [Example 42, N-(4-((dimethylamino)(thiophen-2-yl)methyl)cyclohexyl)-2-(1-(phenylsulfonyl)piperidin-3-yloxy)acetamide], the inhibition at 10 µM in assay [1] (setting [5]) is -14%; in assay [2] (setting [6]) it was -17%.
